Laboratory results from patent publication US10238738B2, “Methods of modulating immune system responses” (priority 2014, dated 2019).

Columns and labels:
[1] = tested on: NF-κB; test: NF-κB luciferase reporter assay in 293T cells; assay type: cell-based, human
Method: 293T were maintained in DMEM supplemented with 10% FBS, 1% glutamax, and 1% penicillin streptomycin. Jurkat 1G5 cells contain a stably-integrated LTR-luciferase reporter gene (Aguilar-Cordova et al., 1994), and were maintained in RPMI supplemented with 10% FBS and 1% glutamax. THP-1 cells were maintained in RPMI supplemented with 10% FBS and 1% glutamax and differentiated to macrophages with 50 ng/ml PMA for 48 hr, followed by a 48 hr rest period prior to stimulation. To measure LTR-driven luciferase, 1G5 cells were lysed and luminescence determined using the Luciferase Assay kit (Promega) according to manufacturer's instructions. Results are expressed as fold change compared to untreated. 293T cells were transfected in 96 well plates with 90 ng ELAM firefly luciferase reporter plasmid (Chow et al., 1999) and 10 ng pRL-TK Renilla plasmid using TransiT LTI (Mirus). 18 hours later cells were treated for 6 hours and luciferase activity determined using the Dual-Glo Luciferase Assay System (Promega). Results are expressed as fold increase relative to transfected, mock treated cells following normalization to Renilla luciferase. Digitonin permeabilization assays were done as described previously (Girardin et al., 2003) with the following modifications: 1G5 cells were stimulated with purified HBP supernatants, or 10 μg/ml flagellin (Invivogen) for 20 minutes at 4° C. in the absence or presence of 2 μg/ml digitonin (Sigma). […]
293T were maintained in DMEM supplemented with 10% FBS, 1% glutamax, and 1% penicillin streptomycin. […] To measure LTR-driven luciferase, 1G5 cells were lysed and luminescence determined using the Luciferase Assay kit (Promega) according to manufacturers instructions. Results are expressed as fold change compared to untreated. […] 18 hours later cells were treated for 6 hours and luciferase activity determined using the Dual-Glo Luciferase Assay System (Promega). Results are expressed as fold increase relative to transfected, mock treated cells following normalization to Renilla luciferase.

[2] = target: T1, TIFA (Homo sapiens, UniProt Q96CG3); test: Phosphopeptide analysis of FLAG-TIFA by LC-MS/MS; assay type: cell-based; settings: HBP or mock-treated cells stably expressing FLAG-TIFA; FIG. 19a
T1 construct: expressed in transfected cells; endogenous TIFA knocked down with a 3' UTR shRNA
T1 sequence (Q96CG3 1-184): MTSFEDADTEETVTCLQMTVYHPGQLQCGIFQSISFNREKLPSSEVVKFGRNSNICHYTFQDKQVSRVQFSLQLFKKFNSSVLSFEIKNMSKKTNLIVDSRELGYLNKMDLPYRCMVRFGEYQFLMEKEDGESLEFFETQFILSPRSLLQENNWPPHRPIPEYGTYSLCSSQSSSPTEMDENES
Method: (§1) FLAG-TIFA was immunoprecipitated from Jurkat cells using FLAG M2 agarose beads (Sigma) as described previously (Chen and Gingras, 2007). Briefly, cells were lysed in 50 mM Hepes-KOH pH 8.0, 100 mM KCl, 2 mM EDTA, 0.1% NP40, 10% glycerol. Soluble cell lysates were pre-cleared for 2 hr with mouse IgG agarose (Sigma) and immunoprecipitated overnight at 4° C. Proteins eluted using 0.5 M NH4OH pH 11 (for mass-spectrometry), or 3× FLAG-peptide (Sigma) (immunoblot analysis). TRAF6 was immunoprecipitated from Jurkat cell lysates using rabbit anti-TRAF6 (sc-72201; Santa cruz) conjugated to protein A/G PLUS-agarose (Santa cruz) and eluted in sample buffer. Whole cell lysates or immunoprecipitation eluates were immunoblotted with the following antibodies: M2 anti-FLAG (Sigma), rabbit anti-FLAG (Sigma), mouse anti-TRAF6 (sc-8409; Santa Cruz), rabbit anti-TRAF2 (sc-876), mouse anti-ubiquitin (sc-8017; Santa cruz), mouse anti-beta actin (Sigma). For phosphopeptide analysis, FLAG-TIFA was excised from the gel, subject to in-gel trypic digestion, followed by treatment with cyanogen bromide (Sigma) in 70% TFA and analyzed by LC/MS/MS. Data were analyzed by Scaffold PTM (Proteome).

[3] = target: T1, TIFA; test: Native PAGE analysis of FLAG-TIFA oligomerization; assay type: cell-based; settings: clear native-PAGE or blue native PAGE; Jurkat cells; FIG. 20
Source text: For BlueNative PAGE, cells were lysed in 1% NP-40, 0.1% Triton-X100, 0.1% SDS and soluble lysate separated by gradient PAGE (8-16%) using ExpressPlus System™ (GenScript) as described previously (Kofoed and Vance, 2013). For ClearNative PAGE, cells were lysed in 1% NP-40, 0.1% Trition-X100, 0.1% SDS and soluble lysate separated on 12.5% tris-glycine polyacrylamide gels.

[4] = tested on: TRAF2; test: FLAG-TIFA immunoprecipitation and immunoblot for TRAF2; assay type: cell-based, human; settings: HBP treatment; FIG. 16a
Method: as §1

[5] = target: T2, TIFA-TRAF6 interaction (Homo sapiens, UniProt Q96CG3); test: FLAG-TIFA immunoprecipitation and immunoblot for TRAF6; assay type: cell-based
T2 construct: expressed in transfected cells; endogenous TIFA knocked down with a 3' UTR shRNA; TRAF6 endogenous
T2 sequence (Q96CG3 1-184): T1 sequence (Q96CG3 1-184)
Method: as §1

O=P(O)(O)OC[C@@H](O)[C@H]1OC(OP(=O)(O)O)[C@@H](O)[C@@H](O)[C@@H]1O (stereo partly drawn) [HBP, D-glycerol-D-manno-heptose-1,7-bisphosphate]
NF-κB activation after incubation of the product with phosphatase GmhB ([1]; FIG. 1e): decreased NF-κB activation
NF-κB activation ([1]; product of in vitro reaction of S7P with GmhA and HldA, FIG. 1d): potently stimulated NF-κB
TIFA Thr9 phosphorylation [2]: phosphorylated only after treatment with HBP
TIFA oligomerization [3]: triggered TIFA oligomerization
TIFA interaction with TRAF2 [4]: No interaction was observed
Ubiquitin chains in the TIFA-TRAF6 complex ([5]; Jurkat cells, TIFA immunoprecipitation, FIG. 17a): Ubiquitin chains could be detected
TIFA-TRAF6 interaction ([5]; cells expressing FLAG-TIFA, endogenous TIFA knocked down, FIG. 16a): completely dependent on HBP
Time at which TIFA-TRAF6 interaction was apparent ([5]; post treatment, FIG. 16a): 30 min
